Reference: patent publication US11883436B2, “Method of preparing hematopoietic stem and progenitor cells for transplantation” (THE BOARD OF TRUSTEES OF THE UNIVERSITY OF ILLINOIS, priority 2020, dated 2024)

Legend:
CD34+ UCB cells = test: CD34+ UCB cell xenotransplants into NSG mice after 2 hour ex vivo treatment; engraftment at 16 weeks; format: in vivo, human
Protocol: CD34^+ UCB Cell Xenotransplants into NSG Mice. All NSG studies were carried out in accordance with, and approval of the Institutional Animal Care and Use Committee of Indiana University School of Medicine and the Guide for the Care and Use of Laboratory animals. Female NOD.Cg-Prkdc^scid I12rg^tm1Wj1/Szj (NSG) mice were obtained from the In Vivo Therapeutics Core of the Indiana University Simon Cancer Center. Animals were maintained under pathogen-free conditions and maintained on Irradiated Global 2018 (Uniprim 4,100 ppm; Harlan Laboratories) food pellets with ad libitum access to autoclaved, acidified tap water under a 12-hour light-dark cycle at 22° C. to 24° C. Mice were irradiated 4 hours prior to transplant (3.0 Gy of ^137Cesium γ-ray irradiation in an irradiator (J. L. Shepherd, Glendale, CA) at a dose rate of 88 cGy/min). CD34^+ UCB cells were thawed in 1% human serum albumin in STEMSPAN® media (STEMCELL Technologies) with human SCF 100 ng/ml and allowed to sit for 2 hours. Cells were then counted and plated at 0.5×10^6 cells/mL in STEMSPAN® media with 1% HSA. Cells were plated and treated with the following for 2 hours at 37° C.: 1, 10, or 50 μM (RS)-Baclofen (Tocris); 1, 10, or 50 μM 2-hydroxy-saclofen (Tocris); vehicle control (DMSO). Cells were harvested and immediately washed with PBS by centrifugation at 300×g for 10 minutes. Mice were transplanted with 20,000 cells each in 200 μL PBS (n=7 mice per group). PB and BM were harvested at 16 weeks post-transplant.
Analysis and Multi-Parametric Flow Cytometry Immunostaining of Xenotransplant Mice. For peripheral blood counts, blood was obtained through retro-orbital bleeding and transferred to EDTA-coated tubes. Peripheral blood cell numbers were determined using a Vet Abc Hematological analyzer (Scil Animal Care). For PB, BM, and spleen analysis of the target populations in xenotransplant mice, the cells were collected using a red blood cell lysis assay (eBioscience). The following primary conjugated monoclonal antibodies were used: anti-human CD34 PE (BD Pharmingen), anti-human AC133 APC (Miltenyi Biotec), anti-human CD19 PECy7 (BD Pharmingen), anti-human CD33 PerCP-Cy5.5 (BD Pharmingen), anti-human CD38 FITC (BD Pharmingen), anti-human CD45 APC-fluorescent dye sold under the tradename ALEXA FLUOR® (AF) 750 (Invitrogen), and the fixable amine reactive viability dye, LiveDead (Violet, Invitrogen).
The lysed PB, BM, and spleen cells were incubated with both human and murine Fc blocking reagent (Miltenyi Biotec) for 10 minutes on ice. Briefly, cells were incubated with the titered antibodies listed above for 30 minutes at 4° C., washed twice in PBS with 2% fetal bovine serum, fixed in 1% PFA (Tousimis), and analyzed within 24 hours on a BD Fortessa™ flow cytometer (BD, Franklin Lakes, NJ, USA) equipped with a 405 nm violet laser, 488 nm blue laser, 640 nm red laser, and 561 nm yellow-green laser. Approximately 100,000 events per sample were acquired uncompensated and exported as FCS 3.1 files, and analyzed utilizing FlowJo software, version 9.9.6 (Tree Star, Inc). “Fluorescent minus one” (FMO) gating controls were also used to ensure proper gating of positive events (Estes, et al. (2010) Curr. Prot. Cytometry 9:9.33.331-11; Estes, et al. (2010) Cytometry Part A 77:831-839).
Findings from the mouse model indicated a role for Gabbr1 neuroreceptor in two aspects of hematopoiesis: proliferation of HSPCs and differentiation of B lineage cells. To evaluate functional conservation of Gabbr1 in hematopoiesis, and translational potentials of GABA signaling for HSPCs, CD34^+ UCB cells were exposed for 2 hours in vitro with increasing doses of either baclofen (Bac), a clinically approved GABA agonist (Bowery, et al. (1980) Nature 283(5742):92-94), or 2-hydroxy-saclofen (Sac), a selective antagonist of GABA B receptor (Kerr, et al. (1988) Neurosci. Lett. 92(1):92-96). […]

CD34+ UCB progenitors = test: Human umbilical cord blood (UCB) colony forming assays; format: cell-based
Protocol: Human Umbilical Cord Blood (UCB) Colony Forming Assays. Colony forming assays were carried out with either CD34^+ UCB progenitors treated as above prior to xenotransplant (i.e., input cells), or from xenotransplant recipient BM after 16 weeks (i.e., output cells). Input cells were plated at a density of 1×10^3 cells/dish. Output cells were plated at a density of 2×10^5 cells/dish. Cells were mixed with METHOCULT® M3434 culture medium (STEMCELL Technologies) and plated into each of three 35-mm gridded dishes. Dishes were incubated at 37° C. for 12 days and colonies were enumerated under a bright light microscope. A clonogenic colony contained at least 50 cells or greater. Findings from the mouse model indicated a role for Gabbr1 neuroreceptor in two aspects of hematopoiesis: proliferation of HSPCs and differentiation of B lineage cells. To evaluate functional conservation of Gabbr1 in hematopoiesis, and translational potentials of GABA signaling for HSPCs, CD34^+ UCB cells were exposed for 2 hours in vitro with increasing doses of either baclofen (Bac), a clinically approved GABA agonist (Bowery, et al. (1980) Nature 283(5742):92-94), or 2-hydroxy-saclofen (Sac), a selective antagonist of GABA B receptor (Kerr, et al. (1988) Neurosci. Lett. 92(1):92-96). […]

LSK progenitors = test: OP9 co-culture B cell differentiation of LSK progenitors treated with Baclofen; format: cell-based, mouse
Protocol: In vitro B Cell Differentiation Assay. LSK progenitors (4,000) from wild-type and Gabbr1^−/− mice were directly sorted onto pre-prepared OP9 stromal cells with 1 mL complete DMEM medium containing 10% FBS, 1 ng/mL IL-7, and 5 ng/mL Flt-3L. Three and six days later, 1 mL complete DMEM medium was added. One week after initial culture, all cells including OP9 cells were mechanically detached and filtered with a […] cell strainer. Cells were passaged onto fresh OP9 stromal cells with complete medium. Medium was changed every three days. At 14 days after initial culture, all cells were detached and stained with CD45.2, CD19, B220 and CD11b antibodies. The numbers of the different hematopoietic cell populations in each well were calculated by multiplying the total cell numbers from each well with the frequencies of each population. To assess the effects of Gabbr1 on myeloid cell differentiation from LSK cells, the DMEM medium containing 10% FBS, 1 ng/ml IL-7, 5 ng/ml Flt-3L, 5 ng/ml IL-6, 6 ng/ml IL-3 was used. Fourteen days after sorted LSK cells were cultured on OP9 cells, numbers of CD11b^+ and Gr-1^+ cells were measured via flow cytometry.
In addition, OP9 co-culture experiments were carried out to differentiate HSPCs in vitro toward B lineages. LSK progenitors (3,000-4,000 cells) were sorted from wild-type or Gabbr1 null mutants. These cells were plated on a stromal OP9 cells and induced to differentiate into B cells by supplementing media (a-MEM 25% HYCLONE™ FBS) with IL-7 (1 ng/mL) and Flt3L (5 ng/mL). […]
To test if OP9 co-cultures would respond to GABBR1 agonist during B cell differentiation, and allow downstream biochemical analysis, the co-cultures were treated with Baclofen. […] Cultures were harvested and analyzed for cell surface marker expression (B220^+ and GABBR1^+) by flow cytometry at day 12.
As part of this self-regulating direct feedback mechanism, it was also determined whether there were any changes in GABBR1 surface expression in B lineages using flow cytometry. […]

[1] = tested on: GAD1/2f/f; CD79a/Mb1-Cre HSPCs (LSK); test: OP9 co-culture B cell differentiation of GAD1/2-deleted HSPCs with Baclofen in the media; format: cell-based, mouse; details: media supplemented with agonist, 12 days
Source text: To genetically block GABA production during B cell differentiation, the B lineage Cre lines CD79a/Mb1-Cre (19) and CD19-Cre were used (Rickert, et al. (1997) Nucl. Acids Res. 25(6):1317-8). These lines were crossed to a GAD1/2-floxed allele (Meng, et al. (2016) Proc. Natl. Acad. Sci. USA 113(13):3645-50) that also carries the Ai14 Lox-Stop-Lox-tdTomato Cre reporter (Madisen, et al. (2010) Nat. Neurosci. 13(1):133-40). At 6-8 weeks of age, BM were harvested and HSPCs (LSK) were sorted from GAD1/2^f/f; CD79a/Mb1-Cre (Cd79a KO) and GAD1/2^f/f-CD19-Cre (Cd19 KO) mice, as well as littermate Cre-negative controls (wild-type). GAD1/2^ff/ excised by Cre recombination will delete the only enzymes that can produce GABA. HSPCs were plated, 3,000-4,000 per well, in OP9 co-culture and were differentiated for 12 days. Cells were harvested from co-cultures for analysis by flow cytometry. The Ai14 Cre reporter was used to confirm that >95% of CD19^+ and/or B220^+ cells were tdTomato^+ as an indication of robust Cre excision in B lineages. Removal of GAD1/2 with CD79a/Mb1-Cre, but not CD19-Cre, led to dramatic reduction of absolute numbers of CD45^+ hematopoietic and B220^+ B lineages. The percentage of B220^+ cells decreased with GAD1/2 deletion by CD79a/Mb1-Cre.

HSPC = details: literature comparison; cited from earlier work
[2] = 10 μM vs vehicle control, spleen of transplanted NSG mice

NCC(CC(=O)O)c1ccc(Cl)cc1 (racemic) [Baclofen, 4-amino-3-(4-chorophenyl)-butanoic acid]
progenitor engraftment CD38+, BM chimerism (CD34+ UCB cells; 10 μM vs vehicle control, BM, 16 weeks): significant increases | CD19+ B-cell reconstitution in spleen (CD34+ UCB cells; [2]): two-fold | overall engraftment in spleen (CD34+ UCB cells; [2]): significant increases in overall engraftment | progenitor-specific CD34+ BM engraftment in NSG mice (CD34+ UCB cells; 10 μM, 2 hours ex vivo, 16 weeks post-transplant): significant improvement | engraftment of hCD45+ cells in NSG recipients (BM) (CD34+ UCB cells; 10 μM, 2 hours ex vivo, 16 weeks post-transplant, vs vehicle control): dramatic enhancement over vehicle control | chimerism, fold higher (long-term engraftment) (CD34+ UCB cells; UCB CD34+ cells, 2 hour treatment, 10 μM dose, before transplantation): 2- to 8 fold | BM chimerism and progenitor numbers in xenograft mouse model (CD34+ UCB cells; human CD34+ UCB HSPCs, up to 16 weeks): sustained increases | in vitro CFUs of CD34+ UCB cells (CD34+ UCB progenitors; input cells, after 2-hour treatment): did not produce increased colonies | progenitor colonies (CFU) in BM of NSG mice transplanted with treated CD34+ UCB cells, vs controls (CD34+ UCB progenitors; output cells, 16 weeks post-transplantation): three-fold | B cell production (B220+ cell number) (LSK progenitors; 1 μM, day 12): reached significance in its stimulation of B cell production | B cell number across dose curve (LSK progenitors; 0.5, 1.0, 5.0, 10 μM, day 12): trend of B cell number increase, then decrease | percentage of B220+ cells with surface expression of GABBR1+ (LSK progenitors; 0.5, 1, 5, 10 μM, day 12, flow cytometry): decreased | rescue of B cell differentiation defect due to GAD1/2 deletion [1]: partially rescues the defect

NCC(O)(CS(=O)(=O)O)c1ccc(Cl)cc1 (stereo not drawn) [2-hydroxy-saclofen, 3-Amino-2-(4-chlorophenyl)-2-hydroxypropyl-sulfonic acid]
engraftment (CD45+, CD34+) in NSG mice (CD34+ UCB cells; 1, 10 or 50 μM, 2 hours ex vivo, 16 weeks post-transplant): did not significantly increase engraftment at any of the tested doses

CCCCC[C@H](O)/C=C/[C@H]1[C@H](O)CC(=O)[C@@H]1C/C=C\CCCC(=O)O [Prostaglandin E2]
improvement in long-term engraftment (HSPC): 2- to 4 fold
